According to ChEMBL document CHEMBL4414676, “Quinazoline-Containing Indole Alkaloids from the Marine-Derived Fungus Aspergillus sp. HNMF114” (J Nat Prod, 2019):
Active and inactive are the calls of the source. The rule behind the calls is not given here.

What was measured:
SGC-7901 = test: Antiproliferative activity against human SGC7901 cells after 24 to 72 hrs by MTT assay; format: functional, cell-based
HeLa = test: Antiproliferative activity against human HeLa cells after 24 to 72 hrs by MTT assay; format: functional, cell-based
A549 = test: Antiproliferative activity against human A549 cells after 24 to 72 hrs by MTT assay; format: functional, cell-based
Staphylococcus aureus = test: Antibacterial activity against Staphylococcus aureus after 24 hrs by two fold dilution assay; format: functional, organism-based
Escherichia coli = test: Antibacterial activity against Escherichia coli after 24 hrs by two fold dilution assay; format: functional, organism-based
Bacillus subtilis = test: Antibacterial activity against Bacillus subtilis after 24 hrs by two fold dilution assay; format: functional, organism-based
Streptococcus agalactiae = test: Antibacterial activity against Streptococcus agalactiae after 24 hrs by two fold dilution assay; format: functional, organism-based
K562 = test: Antiproliferative activity against human K562 cells after 24 to 72 hrs by MTT assay; format: functional, cell-based
[1] = Inhibition of quorum sensing in C6-HSL-induced Chromobacterium violaceum CV026 assessed as […] by measuring minimum inhibitory dose per well after 18 hrs by well diffusion method

Row | MIC [1] [µg] | SMILES | Activity (SGC-7901) | Activity (HeLa) | Activity (A549) | Activity (Staphylococcus aureus) | Activity (Escherichia coli) | Activity (Bacillus subtilis) | Activity (Streptococcus agalactiae) | Activity (K562)
1 |  | O=C1N[C@H]2c3nc4ccccc4c(=O)n3[C@@H]1C[C@@]21c2ccccc2N2C(=O)[C@@H]3CCCN3[C@H]21 | inactive | inactive | inactive | inactive | inactive | inactive | inactive | inactive
2 |  | CC(=O)O[C@H](c1nc2ccccc2c(=O)n1[C@@H]1C[C@]2(OC1=O)c1ccccc1N1C(=O)C(C)(C)N(O)[C@H]12)C(C)C | inactive | inactive | inactive | inactive | inactive | inactive | inactive | inactive
3 | 32 | CC(=O)OC(c1nc2ccccc2c(=O)n1[C@H]1C[C@@]2(OC1=O)C(=O)Nc1ccccc12)C(C)C (some centres not stated) | inactive | inactive | inactive | inactive | inactive | inactive | inactive | inactive
4 |  | CC(C)[C@@]1(O)NC(=O)[C@@H](C[C@]2(O)c3ccccc3N3C(=O)C(C)(C)N(O)[C@H]32)n2c1nc1ccccc1c2=O | inactive | inactive | inactive | inactive | inactive | inactive | inactive | inactive
5 | 1 | O=C1C=C(Br)/C(=C/Br)O1 |  |  |  |  |  |  |  | 
6 |  | CC(C)[C@H](O)c1nc2ccccc2c(=O)n1[C@H]1C[C@]2(OC1=O)c1ccccc1N1C(=O)C(C)(C)N(O)[C@H]12 | inactive | inactive | inactive | inactive | inactive | inactive | inactive | inactive
7 |  | CC(C)[C@@H]1NC(=O)[C@@H](C[C@]2(O)c3ccccc3N3C(=O)C(C)(C)N[C@H]32)n2c1nc1ccccc1c2=O | inactive | inactive | inactive | inactive | inactive | inactive | inactive | inactive
8 |  | O=C1N[C@@H]2c3nc4ccccc4c(=O)n3[C@@H]1C[C@@]21C(=O)Nc2ccccc21 | inactive | inactive | inactive | inactive | inactive | inactive | inactive | inactive
9 |  | CC(=O)O[C@H](c1nc2ccccc2c(=O)n1[C@@H]1C[C@]2(OC1=O)c1ccccc1N1C(=O)C(C)(C)N[C@H]12)C(C)C | inactive | inactive | inactive | inactive | inactive | inactive | inactive | inactive
10 |  | CC1(C)C(=O)N2c3ccccc3[C@@]3(C[C@H](n4cnc5ccccc5c4=O)C(=O)O3)[C@@H]2N1O | inactive | inactive | inactive | inactive | inactive | inactive | inactive | inactive
11 |  | CC(C)[C@H](O)c1nc2ccccc2c(=O)n1[C@H]1C[C@]2(OC1=O)c1ccccc1N1C(=O)C(C)(C)N(S(C)(=O)=O)[C@H]12 | inactive | inactive | inactive | inactive | inactive | inactive | inactive | inactive
12 |  | CCC(=O)O[C@H](c1nc2ccccc2c(=O)n1[C@@H]1C[C@]2(OC1=O)c1ccccc1N1C(=O)C(C)(C)N(O)[C@H]12)C(C)C | inactive | inactive | inactive | inactive | inactive | inactive | inactive | inactive
13 |  | CC(C)[C@@H](O)c1nc2ccccc2c(=O)n1[C@H]1C[C@]2(OC1=O)c1ccccc1N1C(=O)C(C)(C)N(O)[C@H]12 | inactive | inactive | inactive | inactive | inactive | inactive | inactive | inactive
14 |  | CC1(C)C(=O)N2c3ccccc3[C@@]3(C[C@H]4n5c(nc6ccccc6c5=O)C(=O)C(C)(C)[C@@]4(O)O3)[C@@H]2N1O | inactive | inactive | inactive | inactive | inactive | inactive | inactive | inactive
15 | 32 | CC(=O)OC(c1nc2ccccc2c(=O)n1[C@@H]1C[C@]2(OC1=O)C(=O)Nc1ccccc12)C(C)C (some centres not stated) | inactive | inactive | inactive | inactive | inactive | inactive | inactive | inactive
16 |  | CC(=O)O[C@@H](c1nc2ccccc2c(=O)n1[C@H]1C[C@]2(OC1=O)c1ccccc1N1C(=O)C(C)(C)N[C@H]12)C(C)C | inactive | inactive | inactive | inactive | inactive | inactive | inactive | inactive
17 | 16 | CC(C)=C1NC(=O)[C@@H](C[C@@]2(O)C(=O)Nc3ccccc32)n2c1nc1ccccc1c2=O | inactive | inactive | inactive | inactive | inactive | inactive | inactive | inactive
